Biological target: TRPV1 (Mus musculus, UniProt Q704Y3)
Experiment: whole-cell patch clamp, inhibition of capsaicin
Type: cell-based

Sequence of TRPV1 (Q704Y3 whole entry): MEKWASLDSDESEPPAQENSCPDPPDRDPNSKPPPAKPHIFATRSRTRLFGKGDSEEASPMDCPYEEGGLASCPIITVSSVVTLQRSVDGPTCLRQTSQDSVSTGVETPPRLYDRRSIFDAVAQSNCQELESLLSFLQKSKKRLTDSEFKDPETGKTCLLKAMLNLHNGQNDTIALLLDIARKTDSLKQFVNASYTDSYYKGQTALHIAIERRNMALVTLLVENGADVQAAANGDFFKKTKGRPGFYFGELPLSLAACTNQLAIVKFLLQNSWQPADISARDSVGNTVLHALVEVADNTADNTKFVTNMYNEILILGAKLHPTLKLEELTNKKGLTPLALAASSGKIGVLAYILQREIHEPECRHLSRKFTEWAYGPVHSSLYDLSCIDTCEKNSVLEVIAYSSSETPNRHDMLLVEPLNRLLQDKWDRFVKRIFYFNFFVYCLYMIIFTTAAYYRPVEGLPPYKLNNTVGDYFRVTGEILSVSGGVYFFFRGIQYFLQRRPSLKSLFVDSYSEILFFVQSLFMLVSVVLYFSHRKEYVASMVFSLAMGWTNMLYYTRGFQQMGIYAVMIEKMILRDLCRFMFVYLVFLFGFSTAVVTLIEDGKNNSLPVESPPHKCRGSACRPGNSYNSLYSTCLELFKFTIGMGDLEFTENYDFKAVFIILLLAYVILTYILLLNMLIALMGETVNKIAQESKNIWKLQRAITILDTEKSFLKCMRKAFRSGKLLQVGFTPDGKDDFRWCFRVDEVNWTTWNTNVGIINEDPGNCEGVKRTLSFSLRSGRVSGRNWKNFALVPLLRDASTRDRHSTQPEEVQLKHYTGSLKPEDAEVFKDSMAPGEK

For `CC(C)(C)c1ccc(/C=C/C(=O)Nc2ccc3c(c2)OCCO3)cc1` [AMG9810], the IC50 was 163 nM.

Reference: PMC3202339 (2011)
